Laboratory results as given in article PMC8371902, “Phase 1 study of M2698, a p70S6K/AKT dual inhibitor, in patients with advanced cancer” (Journal of Hematology & Oncology, 2021).
Like-named read-outs stand apart in the source and are kept apart here.

System: patients with advanced metastatic cancer
Source text: In this phase 1 study, dose escalation was followed by expansion cohorts of once-daily, oral M2698 in continuous 21-day cycles. Primary objectives were to determine the maximum tolerated dose (MTD), dose-limiting toxicities (DLTs), and recommended phase 2 dose (RP2D). Secondary objectives were to assess safety and tolerability, pharmacokinetics (PK, including food effect) and antitumor activity. Pharmacodynamic biomarker assessments were exploratory. Treatment was discontinued if there was disease progression, toxicity or consent withdrawal.
In Part 1, M2698 monotherapy was investigated in a dose escalation with a food effect cohort. In Part 2, M2698 was investigated as monotherapy (expansion cohort) to further characterize safety, tolerability and pharmacokinetics, and assess antitumor activity in PAM + patients without confounding markers (exploratory).
Dose escalation analysis included all patients who experienced a DLT and those who received ≥ 80% of planned M2698 doses in cycle 1 without experiencing a DLT. Safety analysis included all patients who received ≥ 1 dose of M2698. PK analysis included all patients who received ≥ 1 dose of M2698 and had measurable plasma concentrations. Dose proportionality was tested using the power model (linear regression approach on the log -transformed scale).

Structure (SMILES): NC(=O)c1cccc2c(N[C@H](CN3CCC3)c3ccc(Cl)c(C(F)(F)F)c3)ncnc12 [M2698]
- M2698-related TEAE: Pruritus generalised (240 mg n=17): 0
- M2698-related TEAE: Psychiatric disorders (240 mg n=17): 3
- M2698-related TEAE: Rash (240 mg n=17): 0
- M2698-related TEAE: Rash maculo-papular (240 mg n=17): 0
- M2698-related TEAE: Skin and subcutaneous tissue disorders (240 mg n=17): 0
- M2698-related TEAE: Subjects with at least one event (240 mg n=17): 9
- M2698-related TEAE: Transaminases increased (240 mg n=17): 0
- M2698-related TEAE: Tremor (240 mg n=17): 1
- M2698-related TEAE: Vision blurred (240 mg n=17): 0
- M2698-related TEAE: Vomiting (240 mg n=17): 1
- M2698-related TEAE: White blood cell count decreased (240 mg n=17): 0
- M2698-related TEAE: Abnormal dreams (320 mg n=12): 2
- M2698-related TEAE: Affect lability (320 mg n=12): 0
- M2698-related TEAE: Alanine aminotransferase increased (320 mg n=12): 0
- M2698-related TEAE: Amylase increased (320 mg n=12): 0
- M2698-related TEAE: Anaemia (320 mg n=12): 1
- M2698-related TEAE: Angina pectoris (320 mg n=12): 0
- M2698-related TEAE: Anxiety (320 mg n=12): 1
- M2698-related TEAE: Aphasia (320 mg n=12): 1
- M2698-related TEAE: Ataxia (320 mg n=12): 1
- M2698-related TEAE: Blood and lymphatic system disorders (320 mg n=12): 1
- M2698-related TEAE: Blood creatine phosphokinase increased (320 mg n=12): 0
- M2698-related TEAE: Blood creatinine increased (320 mg n=12): 1
- M2698-related TEAE: Cardiac disorders (320 mg n=12): 0
- M2698-related TEAE: Cognitive disorder (320 mg n=12): 0
- M2698-related TEAE: Constipation (320 mg n=12): 2
- M2698-related TEAE: Decreased appetite (320 mg n=12): 1
- M2698-related TEAE: Delusion (320 mg n=12): 1
- M2698-related TEAE: Depression (320 mg n=12): 1
- M2698-related TEAE: Diarrhoea (320 mg n=12): 4
- M2698-related TEAE: Diarrhoea haemorrhagic (320 mg n=12): 0
- M2698-related TEAE: Dizziness (320 mg n=12): 0
- M2698-related TEAE: Dry eye (320 mg n=12): 0
- M2698-related TEAE: Dry mouth (320 mg n=12): 0
- M2698-related TEAE: Dysgeusia (320 mg n=12): 0
- M2698-related TEAE: Dyspepsia (320 mg n=12): 1
- M2698-related TEAE: Dysphagia (320 mg n=12): 0
- M2698-related TEAE: Energy increased (320 mg n=12): 0
- M2698-related TEAE: Erythema (320 mg n=12): 0
- M2698-related TEAE: Euphoric mood (320 mg n=12): 0
- M2698-related TEAE: Eye disorders (320 mg n=12): 0
- M2698-related TEAE: Fatigue (320 mg n=12): 1
- M2698-related TEAE: Gamma-glutamyltransferase increased (320 mg n=12): 0
- M2698-related TEAE: Gastrointestinal disorders (320 mg n=12): 8
- M2698-related TEAE: Gastrooesophageal reflux disease (320 mg n=12): 0
- M2698-related TEAE: General disorders and administration site conditions (320 mg n=12): 2
- M2698-related TEAE: Headache (320 mg n=12): 0
- M2698-related TEAE: Hyperhidrosis (320 mg n=12): 1
- M2698-related TEAE: Hypokalaemia (320 mg n=12): 1
- M2698-related TEAE: Hypomagnesaemia (320 mg n=12): 1
- M2698-related TEAE: Insomnia (320 mg n=12): 1
- M2698-related TEAE: Investigations (320 mg n=12): 1
- M2698-related TEAE: Lipase increased (320 mg n=12): 0
- M2698-related TEAE: Lymphopenia (320 mg n=12): 0
- M2698-related TEAE: Metabolism and nutrition disorders (320 mg n=12): 2
- M2698-related TEAE: Mucosal inflammation (320 mg n=12): 1
- M2698-related TEAE: Nausea (320 mg n=12): 6
- M2698-related TEAE: Nervous system disorders (320 mg n=12): 4
- M2698-related TEAE: Nightmare (320 mg n=12): 0
- M2698-related TEAE: Onychomadesis (320 mg n=12): 0
- M2698-related TEAE: Paranoia (320 mg n=12): 1
- M2698-related TEAE: Photosensitivity reaction (320 mg n=12): 1
- M2698-related TEAE: Posterior reversible encephalopathy syndrome (320 mg n=12): 0
- M2698-related TEAE: Pruritus generalised (320 mg n=12): 1
- M2698-related TEAE: Psychiatric disorders (320 mg n=12): 3
- M2698-related TEAE: Rash (320 mg n=12): 0
- M2698-related TEAE: Rash maculo-papular (320 mg n=12): 0
- M2698-related TEAE: Skin and subcutaneous tissue disorders (320 mg n=12): 3
- M2698-related TEAE: Subjects with at least one event (320 mg n=12): 9
- M2698-related TEAE: Transaminases increased (320 mg n=12): 0
- M2698-related TEAE: Tremor (320 mg n=12): 3
- M2698-related TEAE: Vision blurred (320 mg n=12): 0
- M2698-related TEAE: Vomiting (320 mg n=12): 0
- M2698-related TEAE: White blood cell count decreased (320 mg n=12): 0
- M2698-related TEAE: Abnormal dreams (380 mg n=4): 0
- M2698-related TEAE: Affect lability (380 mg n=4): 0
- M2698-related TEAE: Alanine aminotransferase increased (380 mg n=4): 0
- M2698-related TEAE: Amylase increased (380 mg n=4): 0
- M2698-related TEAE: Anaemia (380 mg n=4): 0
- M2698-related TEAE: Angina pectoris (380 mg n=4): 0
- M2698-related TEAE: Anxiety (380 mg n=4): 0
- M2698-related TEAE: Aphasia (380 mg n=4): 0
- M2698-related TEAE: Ataxia (380 mg n=4): 0
- M2698-related TEAE: Blood and lymphatic system disorders (380 mg n=4): 0
- M2698-related TEAE: Blood creatine phosphokinase increased (380 mg n=4): 1
- M2698-related TEAE: Blood creatinine increased (380 mg n=4): 0
- M2698-related TEAE: Cardiac disorders (380 mg n=4): 0
- M2698-related TEAE: Cognitive disorder (380 mg n=4): 0
- M2698-related TEAE: Constipation (380 mg n=4): 0
- M2698-related TEAE: Decreased appetite (380 mg n=4): 0
- M2698-related TEAE: Delusion (380 mg n=4): 0
- M2698-related TEAE: Depression (380 mg n=4): 0
- M2698-related TEAE: Diarrhoea (380 mg n=4): 0
- M2698-related TEAE: Diarrhoea haemorrhagic (380 mg n=4): 1
- M2698-related TEAE: Dizziness (380 mg n=4): 0
- M2698-related TEAE: Dry eye (380 mg n=4): 0
- M2698-related TEAE: Dry mouth (380 mg n=4): 0
- M2698-related TEAE: Dysgeusia (380 mg n=4): 0
- M2698-related TEAE: Dyspepsia (380 mg n=4): 0
